Four molecules from ChEMBL document CHEMBL3045214, “Pest-managing efficacy of trans-asarone isolated from Daucus carota L. seeds” (2002) can be followed below.

Activity calls are given as the source filed them. The calls are words filed in the database; no cut-off is given here.

One test relates to Escherichia coli. Nature of the test: Antimicrobial activity against Escherichia coli at 100 ug/ml after 72 hr. The test is classed as functional, organism-based.
The next test relates to Fusarium oxysporum. Nature of the test: Antimicrobial activity against Fusarium oxysporum at 100 ug/ml after 72 hr. The test is classed as functional, organism-based.
The test system of another test is Manduca sexta. Nature of the test: Antifeedant activity against Manduca sexta at 100 ug/ml after 6 days. It counts as functional.
The test system of another test is Heliothis virescens. The experiment in a line: Antifeedant activity against Heliothis virescens (tobacco budworm) at 100 ug/ml after 6 days. It counts as functional.
A further test relates to Panagrellus redivivus. The experiment in a line: Nematicidal activity against Panagrellus redivivus assessed as mortality at 100 ug/ml after 24 hr by microscopic analysis. It counts as functional.
The next test has as its system Staphylococcus aureus. The experiment in a line: Antimicrobial activity against Staphylococcus aureus at 100 ug/ml after 72 hr. It counts as functional, organism-based.
In a further test the test system is Aspergillus flavus. The experiment in a line: Antimicrobial activity against Aspergillus flavus at 100 ug/ml after 72 hr. The test is classed as functional, organism-based.
Test [1] relates to Staphylococcus epidermidis. The experiment in a line: Antimicrobial activity against Staphylococcus epidermidis at 100 ug/ml after 72 hr. It counts as functional, organism-based.
The subject of test [2] is Aedes aegypti. Nature of the test: Mosquitocidal activity against fourth-instar larvae of Aedes aegypti assessed as mortality after 24 hr. The test is classed as functional, organism-based.
A further test relates to Aspergillus parasiticus. The experiment in a line: Antimicrobial activity against Aspergillus parasiticus at 100 ug/ml after 72 hr. The test is classed as functional, organism-based.
For another test, the system named is Pichia kudriavzevii. Nature of the test: Antimicrobial activity against Pichia kudriavzevii at 100 ug/ml after 72 hr. It counts as functional.
In the next test the test system is Helicoverpa zea. The experiment in a line: Antifeedant activity against Helicoverpa zea (corn earworm) at 100 ug/ml after 6 days. The test is classed as functional.
Another test relates to Caenorhabditis elegans. The experiment in a line: Nematicidal activity against Caenorhabditis elegans assessed as mortality at 100 ug/ml after 24 hr by microscopic analysis. The test is classed as functional.
The next test deals with Candida albicans. The experiment in a line: Antimicrobial activity against Candida albicans at 100 ug/ml after 72 hr. The test is classed as functional.
Another test concerns Candida parapsilosis. The experiment in a line: Antimicrobial activity against Candida parapsilosis at 100 ug/ml after 72 hr. It counts as functional.
Test [3] relates to Aedes aegypti. The experiment in a line: Mosquitocidal activity against fourth-instar larvae of Aedes aegypti assessed as mortality at 200 ug/ml after 24 hr. The test is classed as functional.
The subject of test [4] is Aedes aegypti. Nature of the test: Mosquitocidal activity against fourth-instar larvae of Aedes aegypti assessed as mortality at 100 ug/ml after 24 hr. The test is classed as functional.

On to `CC(C)=CCC/C(C)=C/CO`, for which the result in the test with Escherichia coli, in the test with Fusarium oxysporum, in the test with Manduca sexta, in the test on Heliothis virescens, with Staphylococcus aureus and with Aspergillus flavus was inactive. Moreover, the outcome (in test [1]; in the test on Aspergillus parasiticus; with Helicoverpa zea) was inactive. The mortality result with Panagrellus redivivus, in the test on Aedes aegypti [2] and in the test with Caenorhabditis elegans was “inactive” in each case. Moreover, the “inhibition zone (IZ)” value in the test on Pichia kudriavzevii, in the test with Candida albicans and in the test with Candida parapsilosis was “inactive” each time.
On to `CCCCCCCC/C=C\CCCCCCCC(=O)O`, for which the result (with Escherichia coli; in the test with Fusarium oxysporum; in the test on Staphylococcus aureus; in the test with Aspergillus flavus; in test [1]; in the test on Aspergillus parasiticus) was inactive. Besides, the mortality entry with Panagrellus redivivus, in the test on Aedes aegypti [2] and with Caenorhabditis elegans was “inactive” each time. Also, the “inhibition zone (IZ)” value in the test on Pichia kudriavzevii, with Candida albicans and in the test with Candida parapsilosis was “inactive” in each case.
On to `COc1cc(OC)c(OC)cc1C=O`, for which the result with Escherichia coli, in the test with Fusarium oxysporum, in the test on Manduca sexta, in the test with Heliothis virescens, with Staphylococcus aureus and in the test on Aspergillus flavus was inactive. Further, the result (in test [1]; with Aspergillus parasiticus; with Helicoverpa zea) was inactive. The mortality entry in the test on Panagrellus redivivus, in the test with Aedes aegypti [2] and in the test on Caenorhabditis elegans was “inactive” throughout. The “inhibition zone (IZ)” value with Pichia kudriavzevii, in the test on Candida albicans and with Candida parapsilosis was “inactive” each time.
For `C/C=C/c1cc(OC)c(OC)cc1OC` [TRANS-ASARONE], the outcome (in the test on Escherichia coli; in the test with Fusarium oxysporum; in the test with Staphylococcus aureus; with Aspergillus flavus; in test [1]; in the test on Aspergillus parasiticus) was inactive. The Activity with Manduca sexta stood at 79%; in the test on Heliothis virescens, 96%; with Helicoverpa zea, 97%. The mortality (commonly the percentage killed) at 100 µg/mL was found to be 100% with Panagrellus redivivus, 100% in the test with Caenorhabditis elegans and 43% in the test on Aedes aegypti [4]. Besides, the mortality entry in the test with Aedes aegypti [2] is “Active”. In addition, the zone of inhibition at 100 µg/mL is 7 mm in the test with Pichia kudriavzevii (read-out: IZ); 6 mm in the test with Candida albicans (read-out: IZ); 6 mm with Candida parapsilosis (Lodderomyces parapsilosis, read-out: IZ). In the test on Aedes aegypti [3], the mortality at 200 µg/mL was 100%.
